Laboratory results: patent US6706663B2, “Herbicidal 3-heterocyclic substituted benzisothiazole and benzisoxazole compounds” (Wyeth, priority 2000, dated 2004)

Key:
[1] = system: GLXMAW (Soybean, Williams); assay: Postemergence herbicidal evaluation; format: in vivo, Glycine max, (L.) Merr. cv Williams
How it was run: (§1)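 Seedlings grown about two weeks in flats, sprayed, then kept under standard greenhouse care. Rated visually 4–5 weeks after treatment on a 0–9 scale (stand, vigour, malformation, size, chlorosis, overall appearance) relative to untreated control; repeat tests averaged.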

[2] = system: IPOHE (Ipomoea hederacea); assay: Postemergence herbicidal evaluation; format: in vivo, (L.) Jacq.
How it was run: as §1

[3] = system: CYPSE (Cyperus serotinus); assay: Flooded paddy, preemergence weed control; format: in vivo, Rottb.; conditions: rated 3-4 weeks after treatment, 0-9 rating scale
How it was run: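 Seeds or propagules were planted 0.5 cm deep in silt loam and flooded to 1.5–3 cm. Compounds in 50/50 v/v aqueous/acetone were pipetted into the flood water at about 0.0080 to 0.1250 kg/ha. After 3–4 weeks in the greenhouse, effect was rated visually on a 0–9 scale versus untreated control.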

[4] = system: CHEAL (Chenopodium album); assay: Preemergence herbicidal evaluation; format: in vivo, L.; conditions: preemergence, rated 4-5 weeks after treatment
How it was run: (§2)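 Seeds planted in potting soil cups and sprayed preemergence with aqueous acetone compound solution. Greenhouse-grown; rated 4–5 weeks after treatment on a 0-9 visual scale (stand, vigor, malformation, size, chlorosis, appearance) versus control.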

[5] = system: CASOB (Cassia obtusifolia); assay: Preemergence herbicidal evaluation; format: in vivo, L.; conditions: preemergence, rated 4-5 weeks after treatment
How it was run: as §2

[6] = system: AMBEL (Ambrosia artemisifolia); assay: Preemergence herbicidal evaluation; format: in vivo, L.; conditions: preemergence, rated 4-5 weeks after treatment
How it was run: as §2

[7] = system: SETVI (Setaria viridis); assay: Preemergence herbicidal evaluation; format: in vivo, (L.) Beau; conditions: preemergence, rated 4-5 weeks after treatment
How it was run: as §2

[8] = system: ECHCG (Echinochloa crus-galli); assay: Preemergence herbicidal evaluation; format: in vivo, (L.) Beau; conditions: preemergence, rated 4-5 weeks after treatment
How it was run: as §2

[9] = system: MOOVA (Monochoria vaginalis); assay: Flooded paddy, preemergence weed control; format: in vivo, Presl.; conditions: rated 3-4 weeks after treatment, 0-9 rating scale
How it was run: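 Seeds or propagules were planted in the top 0.5 cm of silt loam soil and kept flooded 1.5–3 cm above the surface throughout, then held in the greenhouse. Injury was rated visually on a 0–9 scale against untreated controls, covering stand, vigor, malformation, size and chlorosis.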

[10] = system: GALAP (Galium aparine); assay: Postemergence herbicidal evaluation; format: in vivo
How it was run: as §1

[11] = system: SETVI (Setaria viridis); assay: Postemergence herbicidal evaluation; format: in vivo, (L.) Beau
How it was run: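 Seedlings grown about two weeks were sprayed with compound in 50/50 acetone/water containing 0.5% TWEEN 20, at about 0.0040 to 1.000 kg/ha via nozzle at 40 psi. Plants were kept under greenhouse conditions and visually rated on a 0-9 scale versus control four to five weeks after treatment; replicate tests averaged.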

[12] = system: GALAP (Galium aparine); assay: Preemergence herbicidal evaluation; format: in vivo; conditions: preemergence, rated 4-5 weeks after treatment
How it was run: as §2

[13] = system: ZEAMX (Corn, Field); assay: Preemergence herbicidal evaluation; format: in vivo, Zea mays, L.; conditions: preemergence, rated 4-5 weeks after treatment
[14] = system: ABUTH (Abutilon theophrasti); assay: Postemergence herbicidal evaluation; format: in vivo, Medic.
How it was run: as §1

[15] = system: TRZAWR (Wheat, Winter, cv Riband); assay: Postemergence herbicidal evaluation; format: in vivo, Triticum aestivum
How it was run: as §1

[16] = system: ABUTH (Abutilon theophrasti); assay: Preemergence herbicidal evaluation; format: in vivo, Medic.; conditions: preemergence, rated 4-5 weeks after treatment

Compound	Postemergence herbicidal rating, GLXMAW ([1]; rate 0.0320 kg/ha)	Postemergence herbicidal rating, GLXMAW ([1]; rate 0.0620 kg/ha)	Postemergence herbicidal rating, IPOHE ([2]; rate 0.0320 kg/ha)	Postemergence herbicidal rating, IPOHE ([2]; rate 0.0620 kg/ha)	herbicidal rating, CYPSE ([3]; rate 0.0320 kg/ha)	CHEAL preemergence herbicidal rating ([4]; Rate 0.0620 kg/ha)	CHEAL preemergence herbicidal rating ([4]; Rate 0.1250 kg/ha)	CHEAL preemergence herbicidal rating ([4]; Rate 0.2500 kg/ha)	CASOB preemergence herbicidal rating ([5]; Rate 0.0620 kg/ha)	CASOB preemergence herbicidal rating ([5]; Rate 0.1250 kg/ha)	CASOB preemergence herbicidal rating ([5]; Rate 0.2500 kg/ha)	AMBEL preemergence herbicidal rating ([6]; Rate 0.0620 kg/ha)	AMBEL preemergence herbicidal rating ([6]; Rate 0.1250 kg/ha)	AMBEL preemergence herbicidal rating ([6]; Rate 0.2500 kg/ha)	SETVI preemergence herbicidal rating ([7]; Rate 0.0620 kg/ha)	SETVI preemergence herbicidal rating ([7]; Rate 0.1250 kg/ha)	SETVI preemergence herbicidal rating ([7]; Rate 0.2500 kg/ha)	ECHCG preemergence herbicidal rating ([8]; Rate 0.0620 kg/ha)	ECHCG preemergence herbicidal rating ([8]; Rate 0.1250 kg/ha)	ECHCG preemergence herbicidal rating ([8]; Rate 0.2500 kg/ha)	further results
1-methyl-3-[3-(1,3-oxathiolan-2-yl)-1,2-benzisothiazol-5-yl]-6-(trifluoromethyl)uracil S′,S′-dioxide [Compound 32]	8.0	9.0	9.0	9.0	0.0	9.0	9.0	9.0	6.5	8.0	9.0	9.0	9.0	9.0	9.0	9.0	9.0	6.5	9.0	9.0	herbicidal rating, MOOVA ([9]; rate 0.0320 kg/ha): 6.0; herbicidal rating, MOOVA ([9]; rate 0.1250 kg/ha): 9.0; Postemergence herbicidal rating, GALAP ([10]; rate 0.0320 kg/ha): 2.0; Postemergence herbicidal rating, GALAP ([10]; rate 0.0620 kg/ha): 6.0; Postemergence herbicidal rating, SETVI ([11]; rate 0.0320 kg/ha): 3.0; Postemergence herbicidal rating, SETVI ([11]; rate 0.0620 kg/ha): 6.0; GALAP preemergence herbicidal rating ([12]; Rate 0.0620 kg/ha): 9.0; GALAP preemergence herbicidal rating ([12]; Rate 0.1250 kg/ha): 9.0; GALAP preemergence herbicidal rating ([12]; Rate 0.2500 kg/ha): 9.0; ZEAMX preemergence herbicidal rating ([13]; Rate 0.0620 kg/ha): 6.0; ZEAMX preemergence herbicidal rating ([13]; Rate 0.1250 kg/ha): 9.0; ZEAMX preemergence herbicidal rating ([13]; Rate 0.2500 kg/ha): 9.0; Postemergence herbicidal rating, ABUTH ([14]; rate 0.0320 kg/ha): 9.0; Postemergence herbicidal rating, ABUTH ([14]; rate 0.0620 kg/ha): 9.0; Postemergence herbicidal rating, TRZAWR ([15]; rate 0.0320 kg/ha): 5.0; Postemergence herbicidal rating, TRZAWR ([15]; rate 0.0620 kg/ha): 5.5; ABUTH preemergence herbicidal rating ([16]; Rate 0.0620 kg/ha): 9.0; ABUTH preemergence herbicidal rating ([16]; Rate 0.1250 kg/ha): 9.0; ABUTH preemergence herbicidal rating ([16]; Rate 0.2500 kg/ha): 9.0
Cn1c(C(F)(F)F)cc(=O)n(-c2ccc3snc(C(SCCO)SCCO)c3c2)c1=O [Compound 33, 1,2-benzisothiazole-3-carboxaldehyde, 5-[3,6-dihydro-3-methyl-2,6-dioxo-4-(trifluoromethyl)-1(2H)-pyrimidinyl]-, 3-[bis(2-hydroxyethyl)dithioacetal]]	5.0	5.5	7.0	9.0	0.0	4.0	7.0	9.0	0.0	0.0	0.0	2.0	4.0	8.0	0.0	0.0	6.0	0.0	0.0	5.0	herbicidal rating, CYPSE ([3]; rate 0.1250 kg/ha): 0.0; herbicidal rating, MOOVA ([9]; rate 0.0320 kg/ha): 0.0; herbicidal rating, MOOVA ([9]; rate 0.1250 kg/ha): 4.0; Postemergence herbicidal rating, GALAP ([10]; rate 0.0320 kg/ha): 0.0; Postemergence herbicidal rating, GALAP ([10]; rate 0.0620 kg/ha): 3.0; Postemergence herbicidal rating, SETVI ([11]; rate 0.0320 kg/ha): 1.0; Postemergence herbicidal rating, SETVI ([11]; rate 0.0620 kg/ha): 4.0; GALAP preemergence herbicidal rating ([12]; Rate 0.0620 kg/ha): 3.0; GALAP preemergence herbicidal rating ([12]; Rate 0.1250 kg/ha): 2.0; GALAP preemergence herbicidal rating ([12]; Rate 0.2500 kg/ha): 7.0; ZEAMX preemergence herbicidal rating ([13]; Rate 0.0620 kg/ha): 0.0; ZEAMX preemergence herbicidal rating ([13]; Rate 0.1250 kg/ha): 2.0; ZEAMX preemergence herbicidal rating ([13]; Rate 0.2500 kg/ha): 2.0; Postemergence herbicidal rating, ABUTH ([14]; rate 0.0320 kg/ha): 9.0; Postemergence herbicidal rating, ABUTH ([14]; rate 0.0620 kg/ha): 9.0; Postemergence herbicidal rating, TRZAWR ([15]; rate 0.0320 kg/ha): 4.0; Postemergence herbicidal rating, TRZAWR ([15]; rate 0.0620 kg/ha): 5.0; ABUTH preemergence herbicidal rating ([16]; Rate 0.0620 kg/ha): 2.0; ABUTH preemergence herbicidal rating ([16]; Rate 0.1250 kg/ha): 9.0; ABUTH preemergence herbicidal rating ([16]; Rate 0.2500 kg/ha): 9.0
Cc1ccn(-c2nsc3ccc(-n4c(=O)cc(C(F)(F)F)n(C)c4=O)cc23)n1 [Compound 38, 1-methyl-3-[3-(3-methylpyrazol-1-yl)-1,2-benzisothiazol-5-yl]-6-(trifluoromethl)uracil]	5.5	7.0	7.0	9.0	9.0	9.0	9.0	9.0	0.0	0.0	0.0	0.0	3.0	7.0	5.0	9.0	9.0	7.0	9.0	9.0	herbicidal rating, CYPSE ([3]; rate 0.1250 kg/ha): 9.0; herbicidal rating, MOOVA ([9]; rate 0.0080 kg/ha): 3.0; herbicidal rating, MOOVA ([9]; rate 0.0320 kg/ha): 9.0; Postemergence herbicidal rating, GALAP ([10]; rate 0.0320 kg/ha): 0.0; Postemergence herbicidal rating, GALAP ([10]; rate 0.0620 kg/ha): 4.0; Postemergence herbicidal rating, SETVI ([11]; rate 0.0320 kg/ha): 0.0; Postemergence herbicidal rating, SETVI ([11]; rate 0.0620 kg/ha): 3.0; GALAP preemergence herbicidal rating ([12]; Rate 0.0620 kg/ha): 5.0; GALAP preemergence herbicidal rating ([12]; Rate 0.1250 kg/ha): 3.0; GALAP preemergence herbicidal rating ([12]; Rate 0.2500 kg/ha): 5.0; ZEAMX preemergence herbicidal rating ([13]; Rate 0.0620 kg/ha): 5.0; ZEAMX preemergence herbicidal rating ([13]; Rate 0.1250 kg/ha): 5.0; ZEAMX preemergence herbicidal rating ([13]; Rate 0.2500 kg/ha): 8.0; Postemergence herbicidal rating, ABUTH ([14]; rate 0.0320 kg/ha): 9.0; Postemergence herbicidal rating, ABUTH ([14]; rate 0.0620 kg/ha): 9.0; Postemergence herbicidal rating, TRZAWR ([15]; rate 0.0320 kg/ha): 3.5; Postemergence herbicidal rating, TRZAWR ([15]; rate 0.0620 kg/ha): 4.0; ABUTH preemergence herbicidal rating ([16]; Rate 0.0620 kg/ha): 4.0; ABUTH preemergence herbicidal rating ([16]; Rate 0.1250 kg/ha): 4.0; ABUTH preemergence herbicidal rating ([16]; Rate 0.2500 kg/ha): 6.0
